In ChEMBL document CHEMBL1909600, “Ganodone, a bioactive benzofuran from the fruiting bodies of Ganoderma tsugae” (J Nat Prod, 2011):

Tests used:
HCT-116 [1] = test: Cytotoxicity against human HCT116 cells after 24 hrs by MTT assay; format: functional, cell-based; conditions: HCT-116, 24 h
HeLa = test: Cytotoxicity against human HeLa cells after 24 hrs by MTT assay; format: functional, cell-based
[2] = Cytotoxicity against mouse Neuro2a cells after 24 hrs by MTT assay; format: functional, cell-based; conditions: N2a
HCT-116 [3] = test: Cellular uptake in human HCT116 cells at 1 uM after 1 hr by confocal fluorescence microscopy; format: ADME, cell-based; conditions: hct-116, 1 h
[4] = Drug uptake in human HCT116 cells cytosol at 1 uM after 12 hrs by confocal fluorescence microscopy; format: ADME, cell-based, HCT-116
[5] = Drug uptake in human HCT116 cell nuclear membrane at 1 uM after 12 hrs by confocal fluorescence microscopy; format: ADME, cell membranes; conditions: hct-116, 12 h
[6] = Drug uptake in human HCT116 cell chromatin at 1 uM after 12 hrs by confocal fluorescence microscopy; format: ADME, cell-based; conditions: hct-116, 12 h
[7] = Drug uptake in human HCT116 cell subcellular region at 1 uM incubated for 3 hrs measured after 30 hrs of drug washout by confocal fluorescence microscopy; format: ADME, cell-based; conditions: hct-116, 3 h
[8] = Drug uptake in human HCT116 cell lysosomes at 1 uM by using Lyso Tracker Red DND-99 staining; format: ADME, cell-based, Lysosome; conditions: hct-116, 1 µM
[9] = Drug uptake in human HCT116 cell […] at 1 uM by using Lyso Tracker Red DND-99 staining; format: ADME, cell-based; conditions: hct-116, 1 µM
[10] = Drug uptake in human HCT116 mitochondria at 1 uM by using Mito Tracker Red 580 staining; format: ADME

Compound `CC(=O)c1ccc(OC2Cc3c(ccc(C(C)=O)c3O)O2)cc1O` (stereo unspecified) has an IC50 (HCT-116 [1]) of 220 nM, an IC50 (HeLa) of 490 nM and an IC50 [2] of 81 nM. The Drug uptake (HCT-116 [3]) was “Active”, the Drug uptake [4] was “Active” and the Drug uptake [5] was “Active”. For the same compound, the Drug uptake [6] was “Active”, the Drug uptake [7] was “Active” and the Drug uptake [8] was “Not Active”. The Drug uptake [9] was “Not Active” and the Drug uptake [10] was “Not Active”.
